Test results from US20230407377A1, “CRISPR/CAS SCREENING SYSTEM MATERIALS AND METHODS” (University of Copenhagen, priority 2020, published 2023).

Legend:
Hep3B cells = assay: FGFR4 550M to WT* ratio in cells cultured without or with Fisogatinib; format: cell-based, human; settings: 0.72 μM Fisogatinib until Day 16; ratios normalized to Day 2
Description: (§1) Data represent ratios normalized to the value at Day 2 and are means of 3 independent experiments +/−SD. Two-tailed paired t-tests were used to calculate the significance in all cases. NS=not significant. ** indicates p<0.01. The figure and results are further described in the Examples.
Cultures of human liver cancer Hep3B cells, which harbor FGF19 focal amplification, were nucleofected with SpCas9 protein and synthetic gRNA/tracrRNA targeting a genomic site overlapping the site to be mutated along with an oligonucleotide comprising the mutation of interest (V550M) in the Fisogatinib-binding site of FGFR4 and an oligonucleotide comprising a synonymous mutation (WT*). At Day 2 after nucleofection, an aliquot of the cell culture was analysed by PCR amplification of the genomic target site and NGS of the PCR product to determine the ratio of 550M to WT* alleles in the cell population. Thereafter, cells were split in two cultures, and cultured in the absence (−) or presence (+) of 0.72 μM Fisogatinib until Day 16, whereafter the mutation analysis was repeated on each culture. […] Such applications of the method are important for clinical management as well as for drug development in the pharmaceutical industry.

[1] = tested on: H358 cells xenografted into nude mice; assay: H358 xenograft in nude mice treated with vehicle or AMG 510: tumor volume and 12D versus 12C* ratio; format: in vivo; settings: treated once per day from two weeks after xenografting, versus vehicle
Procedure: (A) A culture of human lung cancer H358 cells was nucleofected with SpCas9 protein and synthetic gRNA/tracrRNA targeting the oncogenic 12C mutation in KRAS present in these cells along with an oligonucleotide comprising the mutation of interest, which was another oncogenic KRAS mutation (12D), and an oligonucleotide comprising a synonymous mutation ([…]). At Day 2 after transfection, an aliquot of the cell culture was analysed by PCR amplification of the genomic target site and NGS of the PCR product to determine the ratio of 12D versus 12C* alleles in the cell population. […] (B) Determination of tumor volumes over time. (C) Representative mice photographed on day 40. […]
A culture of human lung cancer H358 cells was nucleofected with SpCas9 protein and synthetic gRNA/tracrRNA targeting the oncogenic 12C mutation in KRAS present in these cells along with an oligonucleotide comprising the mutation of interest, which was another oncogenic KRAS mutation (12D), and an oligonucleotide comprising a synonymous mutation (12C*). At Day 2 after transfection, an aliquot of the cell culture was analysed by PCR amplification of the genomic target site and NGS of the PCR product to determine the ratio of 12D versus 12C* alleles in the cell population. […] (B) Tumor volumes were determined over time and, (C) representative mice photographed on day 40.

MCF10A (ATM+/+) cells = assay: MUT:WT* ratio of ATM loss-of-function variants without or with Talazoparib; format: cell-based, human; settings: R23STOP, Q218STOP, E365STOP; 2 nM Talazoparib until Day 12
Description: Data represent ratios normalized to the value at Day 2 and show a representative experiment. The figure and results are further described in the Examples.
Cultures of human breast epithelial MCF10A (ATM+/+) cells expressing SpCas9 were transfected with synthetic gRNA/tracrRNA targeting genomic sites in ATM overlapping the sites to be mutated along with an oligonucleotide comprising the mutation of interest (MUT), which was as known loss-of-function variants (R23STOP, Q218STOP or E365STOP), and an oligonucleotide comprising a corresponding synonymous mutation (WT*). At Day 2 after transfection, an aliquot of each culture was analysed by PCR amplification of the genomic target site and NGS of the PCR product to determine the ratio of MUT to WT* alleles in the cell population. Thereafter, cells were cultured in the absence (−) or presence (+) of 2 nM Talazoparib (a PARP inhibitor) until Day 12, where after the mutation analysis was repeated.

MCF10A-BRCA2+/− cells = assay: MUT:WT* ratio of BRCA2 variants in cells cultured without or with PARP inhibitor; format: cell-based, human; settings: 2 nM Talazoparib until Day 12, ratios normalized to Day 2
Procedure: At Day 2 after transfection, an aliquot of each culture was analysed by PCR amplification of the genomic target site and NGS of the PCR product to determine the ratio of MUT to WT* alleles in the cell population. Thereafter, cells were cultured in the absence or presence of 2 nM Talazoparib (a PARP inhibitor) until Day 12, whereafter the mutation analysis was repeated. Data represent ratios
normalized to the value at Day 2 and are means of 3 independent experiments +/−SD. Two-tailed unpaired t-tests were used to calculate the significance in all cases. NS=not significant. ** indicates p<0.01. **** indicates p<0.0001.
BRCA2 loss-of-function mutations sensitize cells to inhibitors of PARP, which are used in clinical trials/in the clinic as a synthetic lethal personalized therapy for cancer patients with BRCA inactivating mutations. We analysed one neutral BRCA2 mutation (D946V) and two loss-of-function BRCA2 mutations (I2627N, Y2660C) in breast epithelial MCF10A-BRCA2+/− cells cultured in the absence or presence of PARP inhibitor. […] Furthermore, the method will thereby also be useful for the purpose of drug development, drug testing and stratification of cancer patients in clinical trials with new drugs.

SW620 (MLH1+/+) cells = assay: MUT:WT* ratio of MLH1 loss-of-function variants without or with 6-thioguanine; format: cell-based, human; settings: E448STOP, Q537STOP; 2 μM 6-thioguanine until Day 11
Description: as §1, with “t-test” for “t-tests”, “p<0.01. *** indicates p<0.001.” for “p<0.01.”
Cultures of human colon cancer SW620 (MLH1+/+) cells were nucleofected with SpCas9 protein and synthetic gRNA/tracrRNA targeting genomic sites in MLH1 overlapping the sites to be mutated along with an oligonucleotide comprising the mutation of interest (MUT), which was as a known loss-of-function variant (E448STOP or Q537STOP), and an oligonucleotide comprising a corresponding synonymous mutation (WT*). At Day 2 after nucleofection, an aliquot of the cell culture was analysed by PCR amplification of the genomic target site and NGS of the PCR product to determine the ratio of MUT to WT* alleles in the cell population. Thereafter, cells were split in two cultures, and cultured in the absence (−) or presence (+) of 2 μM 6-thioguanine until Day 11, where after the mutation analysis was repeated for each culture.

In the case of `C=CC(=O)N[C@H]1CCOC[C@H]1Nc1ncc2cc(-c3c(Cl)c(OC)cc(OC)c3Cl)ccc2n1` [Fisogatinib], the “selection of cells harboring the FGFR4-V550M mutation relative to WT* (resistance)” value (Hep3B cells) was “strongly selected for”.

In the case of `C=CC(=O)N1CCN(c2nc(=O)n(-c3c(C)ccnc3C(C)C)c3nc(-c4c(O)cccc4F)c(F)cc23)[C@@H](C)C1` [AMG 510], the “bulk tumor size (tumor volumes over time)” value [1] was “greatly reduced”.

For `Cn1ncnc1[C@H]1c2n[nH]c(=O)c3cc(F)cc(c23)N[C@@H]1c1ccc(F)cc1` [Talazoparib], the “sensitivity of cells with loss-of-function ATM mutations to PARP inhibitor killing” value (MCF10A (ATM+/+) cells) was “sensitized them to PARP inhibitor killing”, the “effect on cells with the neutral BRCA2 mutation (MUT:WT* ratio)” value (MCF10A-BRCA2+/− cells; D946V) was “no effect” and the “cell proliferation and/or survival of cells with the loss-of-function BRCA2 mutations” value (MCF10A-BRCA2+/− cells; I2627N, Y2660C) was “greatly decreased”.

For `Nc1nc2nc[nH]c2c(=S)[nH]1` [6-thioguanine], the “ability of MLH1 to elicit apoptosis in response to 6-thioguanine in cells with loss-of-function mutations” value (SW620 (MLH1+/+) cells) was “disabled”.
